According to publication PMC11441106 (Journal of medicinal chemistry, 2024):

Assays:
D1R = D1R (Homo sapiens, UniProt P21728); assay: Tango β-arrestin recruitment at D1R; assay type: cell-based; conditions: Tango assay
GABAA = assay: NIMH-PDSP broad-panel counter screening
hERG = hERG (Homo sapiens, UniProt Q12809); assay type: binding
α 1D = target: T1, α 1D (Homo sapiens, UniProt P25100); assay: NIMH-PDSP broad-panel counter screening; conditions: read-out: % inhibition (10 μM)
T1 sequence (P25100 1-572): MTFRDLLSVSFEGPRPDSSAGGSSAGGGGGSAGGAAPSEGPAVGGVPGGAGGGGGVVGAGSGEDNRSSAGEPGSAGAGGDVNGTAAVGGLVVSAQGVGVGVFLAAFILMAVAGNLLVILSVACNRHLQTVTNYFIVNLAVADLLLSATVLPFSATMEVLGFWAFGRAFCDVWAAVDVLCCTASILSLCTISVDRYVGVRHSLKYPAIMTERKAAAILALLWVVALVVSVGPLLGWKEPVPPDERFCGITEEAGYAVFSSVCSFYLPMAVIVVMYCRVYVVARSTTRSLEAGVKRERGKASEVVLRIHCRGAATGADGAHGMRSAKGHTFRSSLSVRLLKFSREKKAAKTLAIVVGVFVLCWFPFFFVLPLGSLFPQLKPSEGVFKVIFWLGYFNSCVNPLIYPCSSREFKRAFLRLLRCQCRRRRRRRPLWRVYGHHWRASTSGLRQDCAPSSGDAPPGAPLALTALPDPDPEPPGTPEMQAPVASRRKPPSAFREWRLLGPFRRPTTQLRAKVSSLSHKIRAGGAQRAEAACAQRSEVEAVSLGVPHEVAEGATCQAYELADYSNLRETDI

in vivo = conditions: rat

D1R, sequence (P21728 whole entry): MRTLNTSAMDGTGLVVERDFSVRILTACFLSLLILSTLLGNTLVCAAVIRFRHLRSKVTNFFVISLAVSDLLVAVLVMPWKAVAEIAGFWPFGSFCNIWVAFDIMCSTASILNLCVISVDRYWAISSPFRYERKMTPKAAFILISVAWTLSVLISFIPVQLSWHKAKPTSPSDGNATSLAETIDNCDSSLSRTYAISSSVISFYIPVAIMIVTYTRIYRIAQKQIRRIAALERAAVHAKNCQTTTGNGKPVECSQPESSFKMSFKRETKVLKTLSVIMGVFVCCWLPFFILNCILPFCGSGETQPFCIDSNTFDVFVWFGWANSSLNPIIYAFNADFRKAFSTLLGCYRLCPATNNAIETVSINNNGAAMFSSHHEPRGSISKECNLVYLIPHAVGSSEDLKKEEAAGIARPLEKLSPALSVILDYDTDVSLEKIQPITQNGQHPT
hERG, sequence (Q12809 whole entry): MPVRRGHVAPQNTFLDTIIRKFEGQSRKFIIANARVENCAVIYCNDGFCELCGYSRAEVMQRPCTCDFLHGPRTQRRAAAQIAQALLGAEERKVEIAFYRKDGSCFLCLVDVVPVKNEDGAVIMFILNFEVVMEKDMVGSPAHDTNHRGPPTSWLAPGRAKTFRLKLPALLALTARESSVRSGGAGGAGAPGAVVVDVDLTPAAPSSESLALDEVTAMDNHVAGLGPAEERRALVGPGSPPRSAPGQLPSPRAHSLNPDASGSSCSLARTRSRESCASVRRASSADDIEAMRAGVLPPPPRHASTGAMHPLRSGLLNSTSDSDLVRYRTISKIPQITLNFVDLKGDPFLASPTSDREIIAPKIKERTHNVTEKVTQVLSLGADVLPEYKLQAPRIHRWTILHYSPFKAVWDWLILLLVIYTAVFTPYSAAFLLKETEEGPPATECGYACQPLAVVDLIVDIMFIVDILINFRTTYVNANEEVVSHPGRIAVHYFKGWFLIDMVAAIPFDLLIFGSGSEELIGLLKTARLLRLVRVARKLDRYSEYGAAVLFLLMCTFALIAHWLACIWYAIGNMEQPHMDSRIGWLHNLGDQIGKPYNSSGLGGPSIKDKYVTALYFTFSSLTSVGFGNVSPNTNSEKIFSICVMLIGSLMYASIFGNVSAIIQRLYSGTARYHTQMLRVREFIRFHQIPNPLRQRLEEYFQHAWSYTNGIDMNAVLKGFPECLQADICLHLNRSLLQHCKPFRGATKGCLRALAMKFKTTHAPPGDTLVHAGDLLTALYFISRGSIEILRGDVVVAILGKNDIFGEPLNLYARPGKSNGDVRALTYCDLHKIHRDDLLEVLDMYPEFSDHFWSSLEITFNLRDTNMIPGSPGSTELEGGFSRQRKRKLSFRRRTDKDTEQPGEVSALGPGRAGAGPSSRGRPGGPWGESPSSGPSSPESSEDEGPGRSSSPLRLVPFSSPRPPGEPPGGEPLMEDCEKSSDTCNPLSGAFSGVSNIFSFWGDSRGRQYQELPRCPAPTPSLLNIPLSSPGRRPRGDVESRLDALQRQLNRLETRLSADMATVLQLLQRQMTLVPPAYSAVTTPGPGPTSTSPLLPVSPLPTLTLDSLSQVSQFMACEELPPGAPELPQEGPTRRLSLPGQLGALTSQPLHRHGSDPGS

Structure (SMILES) | β-arrestin recruitment response at D1R (D1R) | % inhibition (10 μM) (GABAA) [%] | hERG inhibition or binding affinity (hERG) | inhibition at 10 µM (α 1D) [%] | Vd (in vivo; male, Sprague-Dawley, plasma, iv, 10 mg/kg) [L/kg] | CL (in vivo; in vivo, po, 20 mg/kg) [L/h/kg]
O=C(NCCO)c1cccc2c1CCN2c1cc(Cc2cccc(C(F)(F)F)c2)ccn1 [Compound 4a] | no response | – | – | – | – | –
Cc1c(Nc2cc(Cc3cccc(C(F)(F)F)c3)ccn2)cccc1C(=O)NCCO [Compound 15b, N-(2-Hydroxyethyl)-2-methyl-3-((4-(3-(trifluoromethyl)benzyl)-pyridin-2-yl)amino)benzamide] | – | −17.94 | did not show inhibition or binding affinity | -10.5 | 1.85 | 6.2 ± 2.1
